Molecular target: GTPase KRas [G12V]/RAF proto-oncogene serine/threonine-protein kinase (Homo sapiens, UniProt P01116, G12V)
Experiment: KRAS/RAF1 Binding Inhibition Assay
Description: The test compounds in 2% DMSO (final concentration) at various concentrations were then added to the reaction mixture and incubated for 60 minutes at 4° C.

IC50 | SMILES
≤ 200 nM | CCc1c(F)ccc2cc(O)cc(-c3ncc4c(N5CCCNC(=O)C5)nc(OCC5(CN6CCC7(CC6)CC(CN6CCN(c8ccc9c(c8)CN([C@H]8CCC(=O)NC8=O)C9=O)CC6)C7)CC5)nc4c3F)c12 [US20250092039, Compound 93]
> 200 nM | CCc1c(F)ccc2cc(O)cc(-c3ncc4c(N5CCCNC(=O)C5)nc(OCC5(CN6CCC(CN7CCN(c8ccc9c(c8)CN([C@H]8CCC(=O)NC8=O)C9=O)CC7)CC6)CC5)nc4c3F)c12 [US20250092039, Compound 95]

— BindingDB's records for patent US20250092039 (Tiger Biotherapeutics, 2025)
